Laboratory results published in paper PMC4303209, “A novel phosphatidylinositol 3-kinase (PI3K) inhibitor directs a potent FOXO-dependent, p53-independent cell cycle arrest phenotype characterized by the differential induction of a subset of FOXO-regulated genes” (Breast Cancer Research : BCR, 2014).

Tested on: MCF-7 breast cancer cells
Assay: Microarray gene expression analysis (Agilent whole human genome 4 x 44K; compound vs DMSO, LIMMA log2 fold change)
Assay type: cell-based
Settings: cell cycle genes

Oc1cccc(-c2nc(N3CCOCC3)c3oc4ncccc4c3n2)c1 [PI-103]
TRIAP1 log2FC (Gene 51499): -0.86 | DTL log2FC (Gene 51514): -0.14 | SIRT7 log2FC (Gene 51547): 0.32 | CINP log2FC (Gene 51550): -0.05 | GINS2 log2FC (Gene 51659): -0.80 | NUP54 log2FC (Gene 53371): 0.41 | PELO log2FC (Gene 53918): -0.59 | WNT4 log2FC (Gene 54361): -0.42 | ANLN log2FC (Gene 54443): 0.75 | FBXW5 log2FC (Gene 54461): 0.13 | FAM64A log2FC (Gene 54478): 0.10 | DDX4 log2FC (Gene 54514): -0.13 | BTG4 log2FC (Gene 54766): 0.11 | NDE1 log2FC (Gene 54820): 0.40 | NSUN2 log2FC (Gene 54888): -0.48 | TTC19 log2FC (Gene 54902): 0.67 | TXNL4B log2FC (Gene 54957): 0.28 | BANP log2FC (Gene 54971): 0.16 | AURKAIP1 log2FC (Gene 54998): -0.22 | PHIP log2FC (Gene 55023): 1.07 | USP47 log2FC (Gene 55031): 0.61 | ZWILCH log2FC (Gene 55055): 0.41 | PIWIL2 log2FC (Gene 55124): 0.06 | CEP192 log2FC (Gene 55125): 0.35 | CDCA8 log2FC (Gene 55143): -0.04 | RFWD3 log2FC (Gene 55159): -0.62 | CEP55 log2FC (Gene 55165): 0.99 | CENPQ log2FC (Gene 55166): 0.81 | RIF1 log2FC (Gene 55183): 0.39 | ARL8B log2FC (Gene 55207): 0.45 | RCBTB1 log2FC (Gene 55213): 0.71 | CCDC87 log2FC (Gene 55231): 0.15 | STEAP3 log2FC (Gene 55240): -0.44 | MNS1 log2FC (Gene 55329): 0.91 | MCM10 log2FC (Gene 55388): -0.91 | SMPD3 log2FC (Gene 55512): -0.27 | TRIM36 log2FC (Gene 55521): 0.64 | RBM38 log2FC (Gene 55544): -0.58 | PRR5 log2FC (Gene 55615): 0.45 | PRPF40A log2FC (Gene 55660): 1.01 | CEP72 log2FC (Gene 55722): 0.31 | CHFR log2FC (Gene 55743): -0.11 | NUP133 log2FC (Gene 55746): 0.25 | CCAR1 log2FC (Gene 55749): 0.55 | CDK5RAP2 log2FC (Gene 55755): 0.51 | PCID2 log2FC (Gene 55795): 0.32 | CENPN log2FC (Gene 55839): 0.30 | PPP2R2D log2FC (Gene 55844): -0.17 | HDAC8 log2FC (Gene 55869): -0.36 | PBK log2FC (Gene 55872): 0.46 | BIN3 log2FC (Gene 55909): -0.80 | ERBB2IP log2FC (Gene 55914): 1.07 | RCC2 log2FC (Gene 55920): -0.27 | KLHL9 log2FC (Gene 55958): 0.04 | TEX11 log2FC (Gene 56159): 0.000672 | TDRD1 log2FC (Gene 56165): 0.04 | PARD3 log2FC (Gene 56288): 0.46 | RPRM log2FC (Gene 56475): -0.24 | CYP26B1 log2FC (Gene 56603): 0.03 | SPIRE1 log2FC (Gene 56907): 0.10 | SMARCAD1 log2FC (Gene 56916): 0.55 | PRDM9 log2FC (Gene 56979): 0.0757 | KIF15 log2FC (Gene 56992): 1.30 | PDXP log2FC (Gene 57026): -0.93 | PCBP4 log2FC (Gene 57060): -0.27 | CASC5 log2FC (Gene 57082): 0.12 | PCNP log2FC (Gene 57092): 0.60 | NUP107 log2FC (Gene 57122): 0.63 | CHMP1B log2FC (Gene 57132): 0.39 | PAK7 log2FC (Gene 57144): 0.45 | CSRP2BP log2FC (Gene 57325): 0.27 | TTYH1 log2FC (Gene 57348): -0.09 | BIRC6 log2FC (Gene 57448): 0.14 | MTA3 log2FC (Gene 57504): 0.33 | HACE1 log2FC (Gene 57531): 0.51 | TAOK1 log2FC (Gene 57551): 0.40 | USP37 log2FC (Gene 57695): 0.38 | FANCM log2FC (Gene 57697): 0.48 | CCNB1IP1 log2FC (Gene 57820): 0.84 | RHOU log2FC (Gene 58480): 1.56 | OVOL2 log2FC (Gene 58495): 0.16 | AVPI1 log2FC (Gene 60370): 0.53 | RINT1 log2FC (Gene 60561): 0.44 | FAM111A log2FC (Gene 63901): 0.33 | DMRTC2 log2FC (Gene 63946): -0.00414 | CLSPN log2FC (Gene 63967): -0.11 | TSPYL2 log2FC (Gene 64061): -0.12 | DPEP3 log2FC (Gene 64180): 0.19 | RFWD2 log2FC (Gene 64326): -0.06 | CENPH log2FC (Gene 64946): 0.38 | MRPL41 log2FC (Gene 64975): -0.47 | INTS3 log2FC (Gene 65123): -0.18 | PHACTR4 log2FC (Gene 65979): 0.43 | BOLL log2FC (Gene 66037): -0.012 | MIS12 log2FC (Gene 79003): -0.76 | CENPM log2FC (Gene 79019): 0.04 | NUP37 log2FC (Gene 79023): 0.16 | ZNF655 log2FC (Gene 79027): 0.68 | CENPO log2FC (Gene 79172): -0.71 | E2F8 log2FC (Gene 79733): 0.23 | FBXO31 log2FC (Gene 79791): -0.10 | CSPP1 log2FC (Gene 79848): 0.57 | NEK11 log2FC (Gene 79858): 0.47 | MAP9 log2FC (Gene 79884): 1.08 | NUP85 log2FC (Gene 79902): 0.18 | CEP76 log2FC (Gene 79959): 0.32 | CENPT log2FC (Gene 80152): 0.00794 | DBF4B log2FC (Gene 80174): -0.40 | CEP290 log2FC (Gene 80184): 0.83 | CEP63 log2FC (Gene 80254): 0.71 | CDK5RAP3 log2FC (Gene 80279): 0.0271 | CEP70 log2FC (Gene 80321): 0.58 | TUBB1 log2FC (Gene 81027): -0.33 | NDEL1 log2FC (Gene 81565): -0.13 | FAM83D log2FC (Gene 81610): -0.15 | CAB39L log2FC (Gene 81617): 0.08 | CCNL2 log2FC (Gene 81669): -0.13 | CABLES2 log2FC (Gene 81928): -0.71 | KIF18A log2FC (Gene 81930): 1.18 | SESN2 log2FC (Gene 83667): -0.54 | SETDB2 log2FC (Gene 83852): 1.23 | GSG2 log2FC (Gene 83903): -0.50 | RASSF4 log2FC (Gene 83937): 0.14 | MND1 log2FC (Gene 84057): 0.59 | HORMAD1 log2FC (Gene 84072): 0.40 | USP44 log2FC (Gene 84101): 0.0155 | CEP78 log2FC (Gene 84131): 0.36 | GINS4 log2FC (Gene 84296): -0.47 | RAB11FIP4 log2FC (Gene 84440): 0.56 | LZTS2 log2FC (Gene 84445): 1.13 | BRSK1 log2FC (Gene 84446): 0.0146 | SPIRE2 log2FC (Gene 84501): 0.56 | PARD6B log2FC (Gene 84612): 0.88 | PPP1R9B log2FC (Gene 84687): -0.13 | SPATA22 log2FC (Gene 84690): 0.0637 | BEX2 log2FC (Gene 84707): 0.83 | PSRC1 log2FC (Gene 84722): 0.36 | KLHL22 log2FC (Gene 84861): 0.21 | TBRG1 log2FC (Gene 84897): 0.08 | MASTL log2FC (Gene 84930): 0.43 | LSM10 log2FC (Gene 84967): -1.02 | CCNB3 log2FC (Gene 85417): 0.31 | LRRCC1 log2FC (Gene 85444): 0.61 | DIXDC1 log2FC (Gene 85458): 0.018 | PNPT1 log2FC (Gene 87178): -0.10 | LMLN log2FC (Gene 89782): 0.82 | KLHL13 log2FC (Gene 90293): 0.07 | GADD45GIP1 log2FC (Gene 90480): -0.25 | SLFN11 log2FC (Gene 91607): -0.61 | CENPL log2FC (Gene 91687): -0.11 | CABLES1 log2FC (Gene 91768): 1.68 | SYCE1 log2FC (Gene 93426): -0.08 | ACTR8 log2FC (Gene 93973): 0.12 | TP53INP1 log2FC (Gene 94241): 0.89 | CDCA5 log2FC (Gene 113130): 0.0109 | TUBGCP5 log2FC (Gene 114791): 0.12
